Drawing on publication PMC6375636, “Monotherapy with a low-dose lipopeptide HIV fusion inhibitor maintains long-term viral suppression in rhesus macaques” (PLoS Pathogens, 2019), this text covers IC50 for two molecules.

By IC50 is commonly meant the concentration that gives 50% inhibition.

Peptide text beside a SMILES is read from it. * marks the point of attachment. Stearoyl = CCCCCCCCCCCCCCCCCC(=O)*

In one experiment the target is T1, HIV-1HXB2 Env (Human immunodeficiency virus type 1 group M subtype B, UniProt P04578).
T1 construct: HL2/3 cells, which stably express high levels of Env, Gag, Tat, Rev, and Nef proteins of the integrated HIV-1 molecular clone HXB2/3gpt; host or cells: HL2/3 cells (effector), cocultured with TZM-bl target cells
Put plainly: HIV-1HXB2 Env-mediated cell-cell fusion (HL2/3 effector, TZM-bl target, luciferase reporter). The experiment is classed as cell-based. In outline: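 TZM-bl target cells (1 x 10^4/well, plated overnight) were cocultured for 6 h at 37°C with HL2/3 effector cells (3 x 10^4/well) plus graded inhibitor concentrations. Fusion was read as tat-driven LTR luciferase activity.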
(Reporter assays use an easily measured gene product as a stand-in for the process of interest.)

A further experiment relates to NL4-3WT pseudovirus. The experiment is classed as cell-based, HIV-1. Particulars: T-20 resistant, mean ± SD of 3 assays in triplicate, value in parentheses behind the bound. On the procedure: (§1) The inhibitory activities of inhibitors against HIV-1 pseudoviruses and replication-competent isolates were measured as described previously. Briefly, HIV-1 pseudoviruses were generated via the cotransfection of HEK293T cells with an Env-expressing plasmid and a backbone plasmid that encodes Env-defective, luciferase-expressing HIV-1 genome (pSG3Δenv). Viral stocks of replication-competent HIV-1 isolates were generated by transfecting viral molecular clones into HEK293T cells. […] Inhibitors were prepared in 3-fold dilutions, mixed with 100 TCID50 of a virus, and then incubated for 1 h at room temperature. […] Luciferase activity was measured as described above.

The test system of another experiment is NL4-3N43K pseudovirus. The experiment is classed as cell-based, HIV-1. The note with it: T-20 resistant, mean ± SD of 3 assays in triplicate. On the procedure:
as §1

A further experiment deals with NL4-3V38M pseudovirus. It is filed as cell-based, HIV-1. The note with it: T-20 resistant, mean ± SD of 3 assays in triplicate. On the procedure: as §1
The subject of a further experiment is NL4-3V38A pseudovirus. It is filed as cell-based, HIV-1. Particulars: T-20 resistant, mean ± SD of 3 assays in triplicate. Here is the method: as §1
The test system of a further experiment is NL4-3Q40H pseudovirus. The experiment is classed as cell-based, HIV-1. The note with it: T-20 resistant, mean ± SD of 3 assays in triplicate. On the procedure: as §1
Experiment [1] relates to NL4-3V38A/N42T pseudovirus. It is filed as cell-based, HIV-1. Particulars: T-20 resistant, mean ± SD of 3 assays in triplicate. On the procedure:
as §1

Experiment [2] has as its system NL4-3I37T/N43K pseudovirus. It is filed as cell-based, HIV-1. The note with it: T-20 resistant, mean ± SD of 3 assays in triplicate. On the procedure: as §1
A further experiment has as its system NL4-3I37T pseudovirus. The experiment is classed as cell-based, HIV-1. Particulars: T-20 resistant, mean ± SD of 3 assays in triplicate. On the procedure: as §1
Experiment [3] concerns NL4-3G36S/V38M pseudovirus. It is filed as cell-based, HIV-1. Particulars: T-20 resistant, mean ± SD of 3 assays in triplicate. On the procedure: as §1
The test system of experiment [4] is HIV-1 pseudovirus, primary Env 92UG037.8. The experiment is classed as cell-based. The note with it: Env 92UG037.8, subtype A; mean ± SD of 3 assays in triplicate. In outline:
(§2)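 Steps: transfect HEK293T to produce virus, harvesting supernatants at 48 h; titrate on TZM-bl; mix 100 TCID50 with inhibitor in threefold dilutions for 1 h at room temperature; infect TZM-bl cells, 10^4 per well; after 48 h at 37°C, measure luciferase.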

Experiment [5] has as its system HIV-1 pseudovirus, primary Env CH119.10. The experiment is classed as cell-based. The note with it: Env CH119.10, subtype B/C; mean ± SD of 3 assays in triplicate. An outline of the steps: as §2

T1 sequence (P04578 512-856): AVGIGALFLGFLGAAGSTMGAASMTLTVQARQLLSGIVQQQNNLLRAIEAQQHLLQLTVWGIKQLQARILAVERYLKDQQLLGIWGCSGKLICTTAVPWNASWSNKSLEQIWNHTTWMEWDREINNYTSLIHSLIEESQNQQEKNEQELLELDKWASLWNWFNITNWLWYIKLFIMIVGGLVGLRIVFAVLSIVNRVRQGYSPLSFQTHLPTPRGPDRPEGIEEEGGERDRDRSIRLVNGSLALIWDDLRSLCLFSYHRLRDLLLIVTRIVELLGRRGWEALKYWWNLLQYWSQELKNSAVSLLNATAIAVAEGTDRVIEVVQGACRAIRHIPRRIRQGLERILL

Consider `CCCCCCCCCCCCCCCCCC(=O)NCCCC[C@H](NC(=O)[C@H](CCC(=O)O)NC(=O)[C@H](CC(C)C)NC(=O)[C@H](CCCCN)NC(=O)[C@H](CCCCN)NC(=O)[C@H](CC(C)C)NC(=O)[C@H](CCC(=O)O)NC(=O)[C@H](CCC(=O)O)NC(=O)[C@H](CCC(=O)O)NC(=O)[C@H](CC(N)=O)NC(=O)[C@H](CCCCN)NC(=O)[C@H](CCCCN)NC(=O)[C@H](CCC(N)=O)NC(=O)[C@H](CCC(N)=O)NC(=O)[C@H](CCC(=O)O)NC(=O)[C@H](CCC(=O)O)NC(=O)[C@H](C)NC(=O)[C@H](CCCCN)NC(=O)[C@H](CCCCN)NC(=O)[C@H](CC(C)C)NC(=O)[C@H](CC(C)C)NC(=O)[C@H](CCC(=O)O)NC(=O)[C@H](CCC(=O)O)NC(=O)[C@@H](NC(C)=O)[C@@H](C)CC)C(N)=O` [LP-90] (Ac-IEELLKKAEEQQKKNEEELKKLEK(Stearoyl)-NH2), for which the IC50 on HIV-1HXB2 Env stood at 0.0163 nM; in the experiment with NL4-3WT pseudovirus it was 0.03 nM; in the experiment with NL4-3N43K pseudovirus, 5.05 ± 0.13 nM; in the experiment with NL4-3V38M pseudovirus, 4.32 ± 0.78 nM; in the experiment with NL4-3V38A pseudovirus, 8.25 ± 0.55 nM; with NL4-3Q40H pseudovirus, 4.17 ± 0.14 nM. Besides, the IC50 in [1] worked out at 49.2 ± 2.19 nM; in experiment [2], 46.3 ± 0.79 nM; with NL4-3I37T pseudovirus, 0.51 ± 0.09 nM; in [3] it was 2.37 ± 0.39 nM; in [4] it was 0.00842 ± 0.00152 nM; in experiment [5], 0.0108 ± 0.00236 nM.
In the case of “enfuvirtide [Lipopeptide T-20, reference compound]”, the IC50 was 166 ± 19 nM with NL4-3WT pseudovirus; 748 ± 41.9 nM in the experiment on NL4-3N43K pseudovirus; 1050 ± 74.8 nM in the experiment on NL4-3V38M pseudovirus; 2240 ± 33.1 nM in the experiment on NL4-3V38A pseudovirus; 1150 ± 88 nM with NL4-3Q40H pseudovirus; 5950 ± 700 nM in experiment [1]. Also, the IC50 in experiment [2] is 6950 ± 1140 nM; in the experiment on NL4-3I37T pseudovirus it was 1220 ± 120 nM; in experiment [3] it was 317.3 ± 1.65 nM; in [4], 7.76 ± 1.04 nM; in experiment [5], 11.5 ± 1.75 nM.
